Data reported in PMC10224335, “Purification, Identification, and Inhibitory Mechanisms of a Novel ACE Inhibitory Peptide from Torreya grandis” (Nutrients, 2023).
Where two headings read alike, the source gives them in different places. One block for each molecule: values may come before it. Peptide text beside a SMILES is read from it.

What was measured:
[1] = system: pepsin and trypsin; experiment: Stability against simulated gastrointestinal digestion (pepsin, trypsin); format: in vitro ADME
Experimental: The simulated gastrointestinal digestion method was applied according to Li et al., with some modifications. In brief, pH 2.0 was adjusted for the VW-7 solution (ultrapure water, c = 0.4 mg/mL). The peptide solution was mixed with pepsin (2%, w/w) for 2 h at 37 °C. The pH was changed to 7.0 after the process, and half of the liquid was withdrawn. The other half was then given trypsin (2%, w/w) and digested at 37 °C for 2 h. Finally, the reaction was terminated by a boiling water bath, and the ACE inhibition rate of the two-step reaction products was measured.
RP-HPLC was used to analyze the liquid obtained after digestion. The mobile phase A was water containing 0.1% TFA, and the mobile phase B was 100% ACN containing 0.1% TFA. The flow rate was set to 1 mL/min, the detection wavelength was 214 nm, and the column temperature was 30 °C.

[2] = system: EA.hy926 cells; experiment: Cell viability, CCK-8; format: cell-based, Human; settings: 0–400 μg/mL, 24 h
Experimental: (§1) Human umbilical vein endothelial cells (EA.hy926) were grown in DMEM with 10% FBS and 1% penicillin-streptomycin at 37 °C in a humidified environment of 5% CO2.
(§2) Using a cell counting kit-8 (CCK-8) kit, the cytotoxicity of the peptide VNDYLNW in EA.hy926 was assessed. In 96-well cell culture plates, cells were inoculated at a density of 5 × 10^3/well. After 24 h of pre-incubation at 37 ℃ and 5% CO2, 50 µL of peptides with different concentrations were added to achieve the final concentrations of solution of 100, 200, 400, 600, 800, and 1000 µg/mL (using complete medium as the control) for 24 h. Following treatment, the culture medium was removed, 100 µL of medium (without FBS) was added, and 10 µL of CCK-8 was then added to each well. The culture was incubated for 1 h at 37 ℃ and 5% CO2. Finally, the light absorption value at 450 nm was detected by the microplate reader. Relative cell viability was calculated according to Equation (3):(3) Cell viability%=(A − A0)/A1 − A0 × 100 where A1 is the absorbance of cells that are not treated with peptides, A is the absorbance of cells that are treated with peptides, and A0 is the absorbance of the group without cells in the medium.

[3] = Cell viability, CCK-8; format: cell-based, Human; settings: human, EA.hy926 cells
Experimental: as §1, §2

[4] = system: ACE; settings: cited from earlier work; for IC50: read-out: IC50 of ACE inhibition
From the text: The ACE inhibitory activity of the remaining peptides was low, and the inhibition rate was below 20%. Here, we measured the I ... || Based on the Lineweaver–Burk plot analysis, the inhibitory mechanism of VW-7 on ACE was investigated. According to Table 3, the Vmax value decreased and the Km value increased as the peptide concentration increased. […] When the peptide binds to ...

[5] = system: cells; settings: treatment with 25–100 µg/mL; cited from earlier work
From the text: NO is a messenger molecular medium that provides multiple functions in biological tissues. Previous studies have shown that the production of NO is one of the potential mechanisms for the prevention and treatment of hypertension. Inhibiting ACE can prevent vasodilator breakdown and directly stimulate endothelial cells to produce NO [16]. We cultured EA.hy926 cells in the medium and evaluated the intracellular NO in order to see how VW-7 affected the generation of NO in these cells.

- ACE inhibitory action after gastrointestinal digestion ([1]; 0.4 mg/mL in ultrapure water, pH 2.0 pepsin 2% w/w 2 h 37 °C, then pH 7.0 trypsin 2% w/w 2 h 37 °C, read-out ACE inhibition rate, p > 0.05): remained essentially unaltered
- RP-HPLC peak area after two-step digestion ([1]; 0.4 mg/mL, pepsin pH 2.0 2 h then trypsin pH 7.0 2 h, 37 °C, RP-HPLC, UV 214 nm): did not change
Molecule: CC(C)C[C@H](NC(=O)[C@H](Cc1ccc(O)cc1)NC(=O)[C@H](CC(=O)O)NC(=O)[C@H](CC(N)=O)NC(=O)[C@@H](N)C(C)C)C(=O)N[C@@H](CC(N)=O)C(=O)N[C@@H](Cc1c[nH]c2ccccc12)C(=O)O [VNDYLNW] (H-VNDYLNW-OH)
- toxic effect on EA.hy926 cells [2]: no toxic effect
- toxic effect on EA.hy926 cells ([2]; listed as VW-7): no cytotoxicity
- viability at 24 h, 600 µg/mL ([3]; 600 µg/mL, mean ± SD): 92.4 ± 2.4%
- viability at 24 h ([3]; concentration above 600 µg/mL (up to 1000 µg/mL)): < 80%

Molecule: EVSQGRP
- type of ACE inhibition ([4]; peptides from sea cucumber): mixed-type inhibition

Molecule: NMAINPSKENLCSTFCK
- type of ACE inhibition ([4]; peptide from casein): mixed-type inhibition

Molecule: SAAVGSP
- type of ACE inhibition ([4]; peptides from sea cucumber): mixed-type inhibition

Molecule: VASVI [reported antihypertensive peptide from Olive Flounder Surimi]
- production of NO in cells [5]: significantly increased

Molecule: VDMF
- IC50 ([4]; peptide extracted from Coix prolamin): 382 µM

Molecule: VSRHFASYAN
- type of ACE inhibition ([4]; peptides from sea cucumber): mixed-type inhibition

Molecule: VTPVGVPKW
- IC50 ([4]; peptide extracted from Black Cumin seeds): 1.8 µM
